Test results: ChEMBL document CHEMBL1130930, “In vitro anti-human immunodeficiency virus (HIV) activity of the chromanone derivative, 12-oxocalanolide A, a novel NNRTI” (Bioorg Med Chem Lett, 1998)
pEC50, pIC50: −log10 of the molar value. Active and inactive are the calls of the source. The rule behind the calls is not given here.

Experiments:
CEM-SS [1] = assay: Compound was evaluated for the antiviral activity against HIV-1 strain RF in CEM-SS cells; assay type: functional, cell-based, Homo sapiens
MT2 = assay: Compound was evaluated for the anti-HIV activity against HIV strain IIIB in MT2 T-cells; assay type: functional, cell-based, Homo sapiens
[2] = system: Human immunodeficiency virus 1; assay: Compound was evaluated for the antiviral activity against compound resistant virus isolate K101E with amino acid changes in the HIV-1 reverse transcriptase (RT); assay type: functional, organism-based
[3] = system: Human immunodeficiency virus 1; assay: Compound was evaluated for the antiviral activity against resistant virus isolate IIIB with amino acid changes in the HIV-1 reverse transcriptase (RT); assay type: functional, organism-based
[4] = system: Human immunodeficiency virus 1; assay: Compound was evaluated for the antiviral activity against compound resistant virus isolate 4 x AZT with amino acid changes in the HIV-1 reverse transcriptase (RT); assay type: functional, organism-based
[5] = Therapeutic index against HIV-1 strain SK1 in CEM-SS cells was expressed as IC50/EC50; assay type: cell-based, Human immunodeficiency virus 1; settings: for TI: human immunodeficiency virus 1, cem-ss; for selectivity ratio: human immunodeficiency virus 1, CEM-SS cells infected with HIV-1 strain SK1, read-out: TI
[6] = system: Human immunodeficiency virus 1; assay: Compound was evaluated for the antiviral activity against compound resistant virus isolate P236L with amino acid changes in the HIV-1 reverse transcriptase (RT); assay type: functional, organism-based
[7] = Therapeutic index against SIV delta in CEM-SS cells was expressed as IC50/EC50; assay type: cell-based; settings: simian immunodeficiency virus; for TI: cem-ss
CEM-SS [8] = assay: Compound was evaluated for the antiviral activity against SIV delta in CEM-SS cells; assay type: functional, cell-based, Homo sapiens
[9] = system: Human immunodeficiency virus 1; assay: Compound was evaluated for the antiviral activity against compound resistant virus isolate K103N with amino acid changes in the HIV-1 reverse transcriptase (RT); assay type: functional, organism-based
[10] = Therapeutic index against HIV-1 strain IIIB in CEM-SS cells was expressed as IC50/EC50; assay type: cell-based, Human immunodeficiency virus 1; settings: for TI: human immunodeficiency virus 1, cem-ss
[11] = system: Human immunodeficiency virus 1; assay: Compound was evaluated for the antiviral activity against compound resistant virus isolate M184I with amino acid changes in the HIV-1 reverse transcriptase (RT); assay type: functional, organism-based
CCRF-CEM [12] = assay: Compound was evaluated for the anti-HIV activity against HIV strain SK1 in CEM-SS T-cells; assay type: functional, cell-based, Homo sapiens
CEM-SS [13] = assay: Compound was evaluated for the antiviral activity against HIV-2 strain ROD in CEM-SS cells; assay type: functional, Homo sapiens
Homo sapiens [14] = species on record: Homo sapiens; assay: Compound was evaluated for the anti-HIV activity against HIV strain TEKI in fresh peripheral blood mononuclear cell (PBMC). Value was expressed as EC50; assay type: functional, organism-based
CEM-SS [15] = assay: Compound was evaluated for the anti-HIV activity against HIV strain IIIB in CEM-SS Value was expressed as EC50; assay type: functional, cell-based; settings: Homo sapiens
[16] = system: Human immunodeficiency virus 1; assay: Compound was evaluated for the antiviral activity against compound resistant virus isolate Y181C with amino acid changes in the HIV-1 reverse transcriptase (RT); assay type: functional, organism-based
CEM-SS [17] = assay: Compound was evaluated for the antiviral activity against HIV-1 strain SK1 in CEM-SS cells; assay type: functional, cell-based, Homo sapiens
[18] = Compound was evaluated for the anti-HIV activity against HIV strain BaL in monocyte; assay type: functional; settings: Homo sapiens
Homo sapiens [19] = species on record: Homo sapiens; assay: Compound was evaluated for the anti-HIV activity against HIV strain ROJO in fresh peripheral blood mononuclear cell (PBMC); assay type: functional, organism-based
CEM-SS [20] = assay: (§1) Compound was evaluated for the antiviral activity against HIV-1 strain IIIB in CEM-SS cells; assay type: functional, cell-based, Homo sapiens
AA5 = assay: (§2) Compound was evaluated for the anti-HIV activity against HIV strain IIIB in AA5 EBV-infected B-cell; assay type: functional, cell-based; settings: Homo sapiens
[21] = Therapeutic index against HIV-1 strain RF in CEM-SS cells was expressed as IC50/EC50; assay type: organism-based, Human immunodeficiency virus 1; settings: for TI: human immunodeficiency virus 1, cem-ss
Homo sapiens [22] = species on record: Homo sapiens; assay: Compound was evaluated for the anti-HIV activity against HIV strain ADA in monocyte macrophages; assay type: functional, organism-based
U-937 = assay: (§3) Compound was evaluated for the anti-HIV activity against HIV strain IIIB in U937 monocytic cell; assay type: functional, cell-based; settings: Homo sapiens
CEM-SS [23] = assay: Compound was evaluated for the antiviral activity against HIV-1 strain SK1 in CEM-SS cells; IA: Inactive; assay type: functional, cell-based; settings: Homo sapiens
[24] = Therapeutic index against HIV-2 strain ROD in CEM-SS cells was expressed as IC50/EC50; assay type: organism-based; settings: human immunodeficiency virus 2, CEM-SS cells infected with HIV-2 strain ROD; read-out: TI
CEM-SS [25] = assay: as §1; assay type: functional; settings: Homo sapiens
[26] = system: Human immunodeficiency virus 1; assay: Compound was evaluated for the antiviral activity against compound resistant virus isolate Y181C/K103N with amino acid changes in the HIV-1 reverse transcriptase (RT); assay type: functional, organism-based
[27] = system: Human immunodeficiency virus 1; assay: Compound was evaluated for the antiviral activity against compound resistant virus isolate K103E with amino acid changes in the HIV-1 reverse transcriptase (RT)
[28] = system: Human immunodeficiency virus 1; assay: Compound was evaluated for the antiviral activity against compound resistant virus isolate L100I with amino acid changes in the HIV-1 reverse transcriptase (RT); assay type: functional, organism-based
[29] = system: Human immunodeficiency virus 1; assay: Compound was evaluated for the antiviral activity against compound resistant virus isolate T1391 with amino acid changes in the HIV-1 reverse transcriptase (RT); assay type: functional, organism-based
[30] = system: Human immunodeficiency virus 1; assay: Compound was evaluated for the antiviral activity against compound resistant virus isolate Y188H with amino acid changes in the HIV-1 reverse transcriptase (RT); assay type: functional, organism-based
[31] = system: Human immunodeficiency virus 1; assay: Compound was evaluated for the antiviral activity against compound resistant virus isolate V1081 with amino acid changes in the HIV-1 reverse transcriptase (RT); assay type: functional, organism-based
CCRF-CEM [32] = assay: Compound was evaluated for the anti-HIV activity against HIV strain IIIB in CEM-SS T-cells; assay type: functional, cell-based; settings: Homo sapiens
CCRF-CEM [33] = assay: Compound was evaluated for the anti-HIV activity against HIV strain IIIB in 174 x CEM T-cell:B-cell fusion; assay type: functional, cell-based; settings: Homo sapiens
Homo sapiens [34] = species on record: Homo sapiens; assay: Compound was evaluated for the anti-HIV activity against HIV strain TEKI in fresh peripheral blood mononuclear cell (PBMC); assay type: functional, organism-based
Homo sapiens [35] = species on record: Homo sapiens; assay: Compound was evaluated for the anti-HIV activity against HIV strain BaL in monocyte macrophages; assay type: functional, organism-based
B-cell = assay: as §2; assay type: functional, cell-based; settings: Homo sapiens
[36] = as §3; assay type: functional, cell-based; settings: Homo sapiens, U-937

## CCCc1cc(=O)oc2c3c(c4c(c12)OC(C)(C)C=C4)O[C@H](C)[C@@H](C)C3=O (racemic)
CEM-SS [1]; cem-ss
  pEC50: 6.40
  pIC50: 5.24
MT2
  pEC50: 6.25
[2]
  pEC50: < 4.00
[3]
  pEC50: 6.49
[4]
  pEC50: 5.44
[5]
  TI: 37
[6]
  pEC50: 5.69
[7]
  TI: 5
CEM-SS [8]; cem-ss
  pIC50: 5.18
[9]
  pEC50: < 4.00
[10]
  TI: 11
[11]
  pEC50: 6.28
CCRF-CEM [12]
  pEC50: 6.57
CEM-SS [13]
  EC25: 5.57 µM
  IC25: 13.8 µM
Homo sapiens [14]
  pEC50: < 5.00
CEM-SS [15]
  pEC50: 6.28
[16]
  pEC50: 6.23
CEM-SS [17]; cem-ss
  pIC50: 5.20
[18]
  pEC50: 6.29
Homo sapiens [19]
  pEC50: 5.66
CEM-SS [20]; cem-ss
  pEC50: 6.29
  pIC50: 5.25
AA5
  pEC50: 5.55
[21]
  TI: 14
Homo sapiens [22]
  pEC50: 6.48
U-937
  pEC50: 5.52

## CCCc1cc(=O)oc2c3c(c4c(c12)OC(C)(C)C=C4)O[C@H](C)[C@@H](C)[C@@H]3O [CALANOLIDE A]
CEM-SS [1]; cem-ss
  pEC50: 6.77
CEM-SS [20]; Homo sapiens, CEM-SS
  pEC50: 6.85
CEM-SS [23]
  EC25: inactive

## Nc1ccn([C@H]2CC[C@@H](CO)O2)c(=O)n1 [ZALCITABINE]
CEM-SS [1]; Homo sapiens, CEM-SS
  pEC50: 7.30
  pIC50: < 5.30
[5]
  selectivity ratio: > 100
[7]; CEM-SS cells infected with SIV delta, read-out: TI
  selectivity ratio: > 26
CEM-SS [8]; Homo sapiens, CEM-SS
  pEC50: 6.72
  pIC50: < 5.30
[10]; human immunodeficiency virus 1, CEM-SS cells infected with HIV-1 strain IIIB, read-out: TI
  selectivity ratio: > 250
[24]
  selectivity ratio: > 333
CEM-SS [13]; Homo sapiens, CEM-SS, read-out: EC25
  EC25: 0.03 µM
CEM-SS [13]; Homo sapiens, CEM-SS, read-out: IC25
  IC25: > 10 µM
CEM-SS [17]; Homo sapiens, CEM-SS
  pEC50: 7.30
  pIC50: < 5.30
CEM-SS [20]; Homo sapiens, CEM-SS
  pEC50: 7.70
CEM-SS [25]
  EC25: > 5 µM
[21]; human immunodeficiency virus 1, CEM-SS cells infected with HIV-1 strain RF, read-out: TI
  selectivity ratio: > 100

## Cc1cn([C@H]2C[C@H](N=[N+]=[N-])[C@@H](CO)O2)c(=O)[nH]c1=O [ZIDOVUDINE]
[26]
  pEC50: > 7.52
[27]
  pEC50: 8.40
[3]; Human immunodeficiency virus 1
  pEC50: 8.05
[4]; Human immunodeficiency virus 1
  pEC50: < 6.00
[6]; Human immunodeficiency virus 1
  pEC50: […]
[28]
  pEC50: > 8.52
[29]
  pEC50: 7.40
[11]; Human immunodeficiency virus 1
  pEC50: 8.00
[16]; Human immunodeficiency virus 1
  pEC50: 8.22
[30]
  pEC50: > 8.52

## CCCc1cc(=O)oc2c3c(c4c(c12)OC(C)(C)C=C4)O[C@H](C)[C@@H](C)C3=O (stereo in doubt; (+)-2)
CEM-SS [1]; cem-ss
  pEC50: 6.05
MT2
  pEC50: 5.58
[26]
  pEC50: 5.21
[31]
  pEC50: < 4.00
CCRF-CEM [32]
  pEC50: 5.96
[2]
  pEC50: 4.58
[3]
  pEC50: 5.83
[4]; Human immunodeficiency virus 1
  pEC50: 5.56
[5]
  TI: > 58
[6]
  pEC50: 5.17
CCRF-CEM [33]
  pEC50: < 5.00
[7]
  TI: 6
Homo sapiens [34]
  pEC50: < 5.00
CEM-SS [8]; cem-ss
  pEC50: 5.78
[9]
  pEC50: 4.51
[28]
  pEC50: < 4.00
[29]
  pEC50: < 4.00
[10]
  TI: > 10
[11]
  pEC50: 4.22
Homo sapiens [35]
  pEC50: 5.66
[24]
  selectivity ratio: 2
CCRF-CEM [12]
  pEC50: 6.21
CEM-SS [13]
  EC25: 15.9 µM
  IC25: 34.8 µM
[16]
  pEC50: 5.68
CEM-SS [17]; cem-ss
  pEC50: 6.77
[30]
  pEC50: < 4.00
Homo sapiens [19]; Homo sapiens
  pEC50: 5.58
CEM-SS [20]; cem-ss
  pEC50: 6.00
B-cell
  pEC50: < 5.00
[21]
  TI: > 11
Homo sapiens [22]
  pEC50: 5.75
[36]
  pEC50: < 5.00

## CCCc1cc(=O)oc2c3c(c4c(c12)OC(C)(C)C=C4)O[C@H](C)[C@@H](C)C3=O (stereo in doubt; (-)-2)
CEM-SS [1]; Homo sapiens, CEM-SS
  pIC50: < 5.00
CEM-SS [1]; cem-ss
  pEC50: 5.47
[5]
  selectivity ratio: > 37
[7]
  TI: 2
CEM-SS [8]; Homo sapiens, CEM-SS
  pIC50: < 5.00
CEM-SS [8]; cem-ss
  pEC50: 5.21
[10]
  TI: > 5
CEM-SS [17]; Homo sapiens, CEM-SS
  pEC50: 6.57
  pIC50: < 5.00
CEM-SS [20]; Homo sapiens, CEM-SS
  pIC50: < 5.00
CEM-SS [20]; cem-ss
  pEC50: 5.73
[21]
  TI: > 3
